Test results from patent US6696491B2, “Treating irritable bowel syndrome or disease” (Meracol Corporation Limited, priority 2000, dated 2004).

Tests used:
[1] = test system: Irritable Bowel Syndrome / chronic diarrhea; test: Earlier conventional medication of the trial patients (patient history); format: in vivo, human; conditions: for reduction of symptoms: Patient 3, IBS, tried over 40 years before the trial
Description: They were assessed by a gastroenterologist in 1989 and placed on long-term use of Imodium. This was given to reduce the number of bowel motions.
They also tried Colestid and was told to remain on this indefinitely to reduce their diarrhea.
Patient 3 was diagnosed with Irritable Bowel Syndrome, and over the next 40 years, tried many different medicines including Colestid sachets, Imodium, Codeine, cholestyramine, and Dicap. […] During this time, patient 3 has been admitted four times to a hospital for acute exacerbations of diarrhea.
Patient 4 has been diagnosed with irritable Bowel Syndrome for over a year and suffers from an extremely swollen abdomen with constant flatulence and diarrhea. Patient 4 has taken Mucilax, bran and has made major dietary alterations, all with no effect. Further effects of Irritable Bowel Syndrome to patient 4 included exhaustion, with the patient sleeping between 12-15 hours daily.

IBS and/or IBD = test: Trials with a variety of patients using dosage forms of cetyl myristate alone; format: in vivo, human
[2] = laboratory experiments; website www.gcinutrients.com; cited from earlier work

Molecule | reduction of symptoms [1] | relief from the symptoms of IBS and/or IBD (IBS and/or IBD) | anti-arthritic activity [2] | reduction of the number of bowel motions ([1]; Patient 1, long-term use from 1989, before the trial)
cholestyramine | none of the medicines listed were able to reduce the symptoms |  |  | 
CCCCCCCCCCCCCCCCOC(=O)CCCCCCCCCCCCC [cetyl myristate] |  | favorable responses | negligible | 
CN(C)C(=O)C(CCN1CCC(O)(c2ccc(Cl)cc2)CC1)(c1ccccc1)c1ccccc1 [Imodium] | none of the medicines listed were able to reduce the symptoms |  |  | some benefits from this but they did not improve sufficiently
COc1ccc2c3c1O[C@H]1[C@@H](O)C=C[C@H]4[C@@H](C2)N(C)CC[C@@]341 [Codeine] | none of the medicines listed were able to reduce the symptoms |  |  | 
